{"source": "patent US20240024317A1", "about": "“CANCER TREATMENT USING BOSENTAN IN COMBINATION WITH A CHECKPOINT INHIBITOR” (Materia Therapeutics Inc., priority 2020, published 2024)", "key": {"[1]": {"system": "spontaneous 4T1 metastases", "assay": "Survival of mice with spontaneous metastases after surgical removal of primary tumors", "format": "in vivo", "conditions": "1 mg/kg bosentan combined with ICB cocktail, n=8-10", "procedure": "(§1) To determine if a stiffness-reducing and hypoxia-reducing (blood flow-increasing) regimen of bosentan could enhance the efficacy of an ICB cocktail of anti-PD-1 (mouse monoclonal anti-PD-1 CD279, clone RMP1-14, BioXCell) and anti-CTLA-4 (mouse monoclonal anti-CTLA-4 CD152, clone 9D9, BioXCell) antibodies, mice bearing primary tumors in a neo-adjuvant setting were administered various treatments. Therapy was administered before removing the primary tumors surgically to assess mice survival against spontaneous metastases that arose on treatment. For the combinatorial treatment with bosentan and Immunotherapy studies, bosentan 1 mg/kg or equal volume of diluent (control group) was administered by intraperitoneal injection (i.p.) once a day for 14 days, starting from once the tumor volumes reached an average size of 5 mm diameter. Immunotherapy was administrated as a cocktail of 10 mg/kg anti-PD-1 (CD279, clone RMP1-14, BioXCell) and 5 mg/kg anti-CTLA-4 (CD152, clone 9D9) following dilution in the recommended InVivoPure pH 7.0 Dilution Buffer (BioXCell). The immunotherapy cocktail was administered i.p. when tumors reached an average size of 200 mm^3 every three days for three doses. For the immunotherapy studies, animals were also treated with a non-targeting isotype control antibody (BioXCell). Primary tumors were excised when they reached an average size of 700 mm^3 and the tissue was sutured for the study of the metastatic tumors. Planar dimensions (x, y) of tumor were monitored every 2-3 days using a digital caliper and tumor volume was estimated from the volume of an ellipsoid and assuming that the third dimension, z, is equal to […]. For the overall survival studies, the ending point was the time to mouse death. […] In the E0771 study, 8 out of 10 mice initiated survived. […] The remaining five mice were rechallenged with a second inoculation of E0771 cells and the tumor growth rates were compared against healthy age-matched control mice."}, "[2]": {"system": "spontaneous E0771 metastases", "assay": "Survival of mice with spontaneous metastases after surgical removal of primary tumors", "format": "in vivo", "procedure": "as §1"}, "4T1 tumors [3]": {"system": "4T1 tumors", "assay": "CD3/CD31 immunofluorescence: T cell proximity to endothelial cells and area fractions", "format": "in vivo, mice", "procedure": "(§2) Because reducing collagen I levels and tissue stiffness decompresses vessels, it was hypothesized that hypoxia, which is an indicator of decreased blood flow to the tumor, would be reduced with bosentan treatment. […] For the hypoxia studies, Mice bearing orthotopic E0771 or 4T1 breast tumors were injected (intraperitoneal) with 60 mg/kg of pimonidazole HCl at 2 hr prior to tumor removal. Prior to tumors excision, animals were anesthetized via Avertin (200 mg/kg, intraperitoneal). Primary tumors were then excised, fixed in 4% PFA, embedded in OCT and processed accordingly for IHC. Hypoxic regions were detected using the mouse anti-pimonidazole RED 549 conjugate antibody (HP7-100Kit, 1:100). Hypoxic area fraction across different treatment groups was normalized to DAPI staining. For fluorescent immunohistochemistry, tumors were removed, washed twice in 1× PBS for 10 min and incubated with 4% PFA overnight at 4° C. The fixative was aspirated, and samples washed twice in 1× PBS for 10 min. Fixed tissues were embedded in optimal cutting temperature compound in cryomolds (Tissue-Tek) and frozen completely at −20° C. Transverse 30 μm thick tumor sections were produced using the Tissue-Tek Cryo3 (SAKURA). Positively charged HistoBond microscope slides (Marienfeld) were used to bond four tissue sections per tumor. Tumor sections were then incubated in blocking solution (10% fetal bovine serum, 3% donkey serum, 1× PBS) for 2h and immunostained with the following primary antibodies; rabbit anti-Collagen I (ab4710, Abcam 1:100), rabbit anti-CD31 (ab28364, Abcam 1:50), rat anti-CD3 (17A2, BioLegend 1:50) and aSMA (ab5694, Abcam 1:50) overnight at 4° C. Secondary antibodies against rabbit, mouse or rat conjugated to Alexa Fluor 488 or 647 (Invitrogen) were used at 1:400 dilution. […] CD31 signal was detected with Alexa Fluor-488 anti-rabbit IgG (H+L) and CD3 signal with Alexa Fluor-647 anti-rat IgG (H+L) secondary antibodies. Tumor associated T cell and vessel content was determined by the CD31 and CD3 area fraction normalized to DAPI staining. […]"}, "4T1 tumors [4]": {"system": "4T1 tumors", "assay": "Primary tumor growth, bosentan plus ICB cocktail, neo-adjuvant setting", "format": "in vivo, mice", "conditions": "1 mg/kg bosentan combined with ICB cocktail (10 mg/kg anti-PD-1, 5 mg/kg anti-CTLA-4); n=8-10", "procedure": "(§3) To determine if a stiffness-reducing and hypoxia-reducing (blood flow-increasing) regimen of bosentan could enhance the efficacy of an ICB cocktail of anti-PD-1 (mouse monoclonal anti-PD-1 CD279, clone RMP1-14, BioXCell) and anti-CTLA-4 (mouse monoclonal anti-CTLA-4 CD152, clone 9D9, BioXCell) antibodies, mice bearing primary tumors in a neo-adjuvant setting were administered various treatments. Therapy was administered before removing the primary tumors surgically to assess mice survival against spontaneous metastases that arose on treatment. For the combinatorial treatment with bosentan and Immunotherapy studies, bosentan 1 mg/kg or equal volume of diluent (control group) was administered by intraperitoneal injection (i.p.) once a day for 14 days, starting from once the tumor volumes reached an average size of 5 mm diameter. Immunotherapy was administrated as a cocktail of 10 mg/kg anti-PD-1 (CD279, clone RMP1-14, BioXCell) and 5 mg/kg anti-CTLA-4 (CD152, clone 9D9) following dilution in the recommended InVivoPure pH 7.0 Dilution Buffer (BioXCell). […] Planar dimensions (x, y) of tumor were monitored every 2-3 days using a digital caliper and tumor volume was estimated from the volume of an ellipsoid and assuming that the third dimension, z, is equal to x y. […]"}, "E0771 tumors": {"system": "E0771 tumors", "assay": "Primary tumor growth, bosentan plus ICB cocktail, neo-adjuvant setting", "format": "in vivo, mice", "conditions": "1 mg/kg bosentan combined with ICB cocktail (10 mg/kg anti-PD-1, 5 mg/kg anti-CTLA-4); n=10", "procedure": "as §3"}, "[5]": {"system": "orthotopic 4T1 breast tumors", "assay": "Pimonidazole hypoxia staining (hypoxic area fraction)", "format": "in vivo, mice", "conditions": "1 mg/kg; 4T1 (FIG. 2B)", "procedure": "as §2, with “C.” for “C. Transverse 30 μm thick tumor sections were produced using the Tissue-Tek Cryo3 (SAKURA). Positively charged HistoBond microscope slides (Marienfeld) were used to bond four tissue sections per tumor. Tumor sections were then incubated in blocking solution (10% fetal bovine serum, 3% donkey serum, 1× PBS) for 2h and immunostained with the following primary antibodies; rabbit anti-Collagen I (ab4710, Abcam 1:100), rabbit anti-CD31 (ab28364, Abcam 1:50), rat anti-CD3 (17A2, BioLegend 1:50) and aSMA (ab5694, Abcam 1:50) overnight at 4° C. Secondary antibodies against rabbit, mouse or rat conjugated to Alexa Fluor 488 or 647 (Invitrogen) were used at 1:400 dilution.”"}}, "data": [{"smiles": "COc1ccccc1Oc1c(NS(=O)(=O)c2ccc(C(C)(C)C)cc2)nc(-c2ncccn2)nc1OCCO", "note": "[bosentan, 4-tert-butyl-N-[6-(2-hydroxy-ethoxy)-5-(2-methoxy-phenoxy)-2-(pyrimidin-2-yl)pyrimidin-4-yl] benzenesulfonamide]", "values": [{"measurement": "survival, median overall survival (Kaplan-Meier)", "setting": "[1]", "result": "potentiated"}, {"measurement": "survival (Kaplan-Meier)", "setting": "[2]; 1 mg/kg bosentan combined with ICB cocktail, E0771", "result": "potentiated"}, {"measurement": "mice surviving", "setting": "[2]; E0771 study, bosentan combined with ICB cocktail", "result": "8 out of 10"}, {"measurement": "macrometastases in the lungs", "setting": "[2]; three surviving mice sacrificed, bosentan combined with ICB cocktail", "result": "no evidence of macrometasteses"}, {"measurement": "T cells colocalizing with endothelial cells (CD3+/CD31+ proximity)", "setting": "4T1 tumors [3]", "result": "more T cells colocalizing with endothelial cells"}, {"measurement": "area fraction of CD3+ staining", "setting": "4T1 tumors [3]", "result": "no change"}, {"measurement": "area fraction of CD31+ staining", "setting": "4T1 tumors [3]", "result": "no change"}, {"measurement": "tumor growth", "setting": "4T1 tumors [4]", "result": "potentiated tumor growth inhibition"}, {"measurement": "tumor growth", "setting": "E0771 tumors", "result": "potentiated tumor growth inhibition"}, {"measurement": "hypoxia (hypoxic area fraction)", "setting": "[5]", "result": "reduced hypoxia"}]}]}
